Test results: US20150190369A1, “QUERCETIN-3-GLUCOSIDE AND USES THEREOF” (priority 2012, published 2015)

How the values were obtained:
SREBP-2 mRNA = experiment: Quantitative RT-PCR for proSREBP-2 mRNA in Huh7 cells; type: cell-based, human; conditions: Huh7, 24 h, 5 μM Q3G
Description: FIGS. 9A and 9B are graphs illustrating the proSREBPs-2 mRNA and SREBP-2-related protein levels for cells exposed to Q3G. Cells were incubated for 24 h in medium 5 μM Q3G. FIG. 9A illustrates the results for quantitative RT-PCR for proSREBPs-2 mRNA levels. Values are the means of triplicate experiments±SEM. FIG. 9B illustrates the results for semi-quantitative immunoblotting for cellular SREBP-2-related protein. Mat/Prec values, the averages of two experiments, represent density ratios of the 65-kDa SREBP over the 158-kDa proSREBPs after normalization for β-actin.
At passage, Huh7 cells were routinely seeded at sub-confluence (˜10^6 cells/10-cm dish) in Dulbecco's modified Eagle's medium (DMEM) containing 10% fetal bovine serum (FBS) or LPDS (for experiments) and 50 μg/ml gentamycin. They were incubated overnight at 37° C., in a humidified 5% CO2-95% air atmosphere. Cells were treated or not with Q3G at defined concentrations and for defined lengths of time. Media were collected and centrifuged at 200 g for 5 min to sediment suspended cells; supernatants were collected and supplemented with 0.33 volumes of a 3×-concentrated PIC. […]
Standard curves were established using varying amounts of purified and quantified cDNA amplicons of each mRNA. […]

PCSK9 = experiment: Pulse-chase metabolic labeling and immunoprecipitation of PCSK9-related proteins in Huh7 cells; type: cell-based, human; conditions: Huh7 pre-incubated 24 h with 5 μM Q3G
Description: For metabolic labeling, Huh7 cells were seeded in a 12-well plate 8×10^5 cells/well in 1.5 ml/well of complete medium and incubated overnight. After a rinse with Dulbecco's PBS (PBS-D), cell monolayers were overlaid with 1.5 ml of DMEM/10% LPDS without or with 5 μM Q3G, and were incubated for 24 h. Fresh serum-free medium (SFM, 1.5 ml) was substituted, and cells were allowed to incubate for 30 min to reduce endogenous Met and Cys. The medium was removed and replaced with fresh SFM (0.75 ml/well) containing 300 μCi/ml^35S-Met/Cys, and cells were incubated at 37° C. for 20 min to label de novo biosynthesized proteins (pulse-labeling). The radioactive medium was replaced with DMEM/0.5% LPDS containing 10 mM non-radioactive Met/Cys and cells were incubated at 37° C. for 0, 15, 30, 60, 90 and 120 min (chase). Conditioned media and cell lysates were processed as described above.
Radioactive conditioned media or cell lysates (0.1 ml) were supplemented with […] of normal rabbit serum and 15 μl of a 50% (w/v) suspension of Protein A-agarose. After a 1-h incubation at 4° C. with rotational mixing, the samples were centrifuged at 3,000 g for 5 min at 4° C. Supernatants were supplemented 2 μl of rabbit anti-PCSK9 [35], and incubated as above. […] Specific radioactive protein bands were visualized and quantified on a Typhoon Phosphorimager (Molecular Dynamics). […]

SMILES: O=c1c(O[C@@H]2O[C@H](CO)[C@@H](O)[C@H](O)[C@H]2O)c(-c2ccc(O)c(O)c2)oc2cc(O)cc(O)c12 [Q3G, quercetin-3-O-β-D-glucoside]
- effect on level of SREBP-2 mRNA (SREBP-2 mRNA): no effect
- rate of intracellular proPCSK9 precursor processing versus untreated cells (PCSK9): no obvious difference
- time to half-maximum accumulation of PCSK9 in culture media (percent of total PCSK9 proteins) (PCSK9; control cells 60 min): 90 min
